From ChEMBL document CHEMBL5055675, “Apoptosis Inducing 1,3,4-Oxadiazole Conjugates of Capsaicin: Their In Vitro Antiproliferative and In Silico Studies” (ACS Med Chem Lett, 2021)
pIC50: −log10 of the molar value. Active and inactive are the calls of the source. The calls are words filed in the database; no cut-off is given here.

Assays:
[1] = test system: CCRF-CEM; experiment: Antiproliferative activity against human CCRF-CEM cells assessed as cell growth at 10 uM incubated for 48 hrs by sulforhodamine B assay relative to control; type: functional; settings: read-out: Activity
[2] = test system: RPMI-8226; experiment: Antiproliferative activity against human RPMI-8226 cells assessed as cell growth at 10 uM incubated for 48 hrs by sulforhodamine B assay relative to control; type: functional; settings: read-out: Activity
[3] = test system: A549; experiment: Antiproliferative activity against human A549/ATCC cells assessed as cell growth at 10 uM incubated for 48 hrs by sulforhodamine B assay relative to control; type: functional; settings: read-out: Activity
[4] = test system: EKVX; experiment: Antiproliferative activity against human EKVX cells assessed as cell growth at 10 uM incubated for 48 hrs by sulforhodamine B assay relative to control; type: functional; settings: read-out: Activity
[5] = test system: HOP-62; experiment: Antiproliferative activity against human HOP-62 cells assessed as cell growth at 10 uM incubated for 48 hrs by sulforhodamine B assay relative to control; type: functional; settings: read-out: Activity
[6] = test system: NCI-H23; experiment: Antiproliferative activity against human NCI-H23 cells assessed as cell growth at 10 uM incubated for 48 hrs by sulforhodamine B assay relative to control; type: functional; settings: read-out: Activity
[7] = test system: NCI-H460; experiment: Antiproliferative activity against human NCI-H460 cells assessed as cell growth at 10 uM incubated for 48 hrs by sulforhodamine B assay relative to control; type: functional; settings: read-out: Activity
[8] = test system: NCI-H522; experiment: Antiproliferative activity against human NCI-H522 cells assessed as cell growth at 10 uM incubated for 48 hrs by sulforhodamine B assay relative to control; type: functional; settings: read-out: Activity
[9] = test system: HCT-15; experiment: Antiproliferative activity against human HCT-15 cells assessed as cell growth at 10 uM incubated for 48 hrs by sulforhodamine B assay relative to control; type: functional; settings: read-out: Activity
[10] = test system: LOX IMVI; experiment: Antiproliferative activity against human LOX IMVI cells assessed as cell growth at 10 uM incubated for 48 hrs by sulforhodamine B assay relative to control; type: functional; settings: read-out: Activity
[11] = test system: M14; experiment: Antiproliferative activity against human M14 cells assessed as cell growth at 10 uM incubated for 48 hrs by sulforhodamine B assay relative to control; type: functional; settings: read-out: Activity
[12] = test system: IGROV-1; experiment: Antiproliferative activity against human IGROV-1 cells assessed as cell growth at 10 uM incubated for 48 hrs by sulforhodamine B assay relative to control; type: functional; settings: read-out: Activity
[13] = test system: OVCAR-3; experiment: Antiproliferative activity against human OVCAR-3 cells assessed as cell growth at 10 uM incubated for 48 hrs by sulforhodamine B assay relative to control; type: functional; settings: read-out: Activity
[14] = test system: OVCAR-4; experiment: Antiproliferative activity against human OVCAR-4 cells assessed as cell growth at 10 uM incubated for 48 hrs by sulforhodamine B assay relative to control; type: functional; settings: read-out: Activity
[15] = test system: 786-0; experiment: Antiproliferative activity against human 786-0 cells assessed as cell growth at 10 uM incubated for 48 hrs by sulforhodamine B assay relative to control; type: functional; settings: read-out: Activity
[16] = test system: CAKI-1; experiment: Antiproliferative activity against human CAKI-1 cells assessed as cell growth at 10 uM incubated for 48 hrs by sulforhodamine B assay relative to control; type: functional; settings: read-out: Activity
[17] = test system: RXF 393; experiment: Antiproliferative activity against human RXF 393 cells assessed as cell growth at 10 uM incubated for 48 hrs by sulforhodamine B assay relative to control; type: functional; settings: read-out: Activity
[18] = test system: MDA-MB-231; experiment: Antiproliferative activity against human MDA-MB-231/ATCC cells assessed as cell growth at 10 uM incubated for 48 hrs by sulforhodamine B assay relative to control; type: functional; settings: read-out: Activity
[19] = test system: Hs-578T; experiment: Antiproliferative activity against human Hs-578T cells assessed as cell growth at 10 uM incubated for 48 hrs by sulforhodamine B assay relative to control; type: functional; settings: read-out: Activity
[20] = test system: NCI-H460; experiment: Antiproliferative activity against human NCI-H460 cells assessed as cell growth inhibition measured after 72 hrs by crystal violet staining based assay; type: functional; settings: NCI-H460, 72 h
[21] = test system: SK-OV-3; experiment: Antiproliferative activity against human SK-OV-3 cells assessed as cell growth inhibition measured after 72 hrs by crystal violet staining based assay; type: functional; settings: SK-OV-3, 72 h
[22] = test system: PNT2; experiment: Cytotoxicity against human PNT2 cells assessed as reduction in cell viability at 4 times IC50 measured after 72 hrs by crystal violet staining based assay; settings: pnt2, 72 h
[23] = test system: NCI-H460; experiment: Induction of ROS production in human NCI-H460 cells incubated for 24 hrs by CM-H2DCFDA probe based flow cytometry analysis; type: functional, cell-based; settings: dose 5-20 µM
[24] = test system: NCI-H460; experiment: Induction of ROS production in human NCI-H460 cells at 20 uM incubated for 24 hrs by CM-H2DCFDA probe based flow cytometry analysis; type: functional, cell-based
[25] = test system: NCI-H460; experiment: Cell cycle arrest in human NCI-H460 cells assessed as accumulation of cells in G2/M phase at 5 uM measured after 72 hrs by propidium iodide/RNase staining based flow cytometry analysis (Rvb= 10.22%); type: functional
[26] = test system: NCI-H460; experiment: Cell cycle arrest in human NCI-H460 cells assessed as accumulation of cells in S phase at 10 uM measured after 72 hrs by propidium iodide/RNase staining based flow cytometry analysis (Rvb= 26.87%); type: functional
[27] = test system: NCI-H460; experiment: Cell cycle arrest in human NCI-H460 cells assessed as accumulation of cells in G2/M phase at 20 uM measured after 72 hrs by propidium iodide/RNase staining based flow cytometry analysis (Rvb= 10.22%); type: functional
[28] = test system: NCI-H460; experiment: Induction of apoptosis in human NCI-H460 cells assessed as early apoptotic cells at 5 uM measured after 72 hrs by Annexin V-FITC and propidium iodide staining based flow cytometry analysis (Rvb= 6.61%); type: functional
[29] = test system: NCI-H460; experiment: Induction of apoptosis in human NCI-H460 cells assessed as late apoptotic cells at 5 uM measured after 72 hrs by Annexin V-FITC and propidium iodide staining based flow cytometry analysis (Rvb= 6.93%); type: functional
[30] = test system: NCI-H460; experiment: Induction of apoptosis in human NCI-H460 cells assessed as late apoptotic cells at 10 uM measured after 72 hrs by Annexin V-FITC and propidium iodide staining based flow cytometry analysis (Rvb= 6.93%); type: functional
[31] = test system: NCI-H460; experiment: Induction of apoptosis in human NCI-H460 cells assessed as late apoptotic cells at 20 uM measured after 72 hrs by Annexin V-FITC and propidium iodide staining based flow cytometry analysis (Rvb= 6.93%); type: functional
[32] = test system: NCI-H460; experiment: Induction of apoptosis in human NCI-H460 cells assessed as decrease in pro-PARP expression level at 1 to 20 uM measured after 72 hrs by western blot analysis; type: functional, cell-based; settings: dose 1-20 µM
[33] = test system: NCI-H460; experiment: Antimigratory activity against human NCI-H460 cells assessed as reduction in vimentin expression level at 1 to 20 uM measured after 72 hrs by western blot analysis; type: functional, cell-based; settings: dose 1-20 µM
[34] = molecular target: MAP kinase p38 (Homo sapiens) (UniProt O15264+Q15759+Q16539+P53778); experiment: Inhibition of p38 MAPK phosphorylation in human NCI-H460 cells at 20 uM measured after 72 hrs by western blot analysis; type: cell-based
[35] = test system: NCI-H460; experiment: Effect on p53 expression in human NCI-H460 cells at 1 to 20 uM measured after 72 hrs by western blot analysis; type: functional, cell-based; settings: dose 1-20 µM
[36] = test system: NCI-H460; experiment: Inhibition of cell proliferation in human NCI-H460 cells assessed as reduction in PCNA expression measured after 72 hrs by western blot analysis; type: functional, cell-based; settings: dose 1-20 µM
[37] = test system: NCI-H460; experiment: Reduction in VEGFR2 mRNA expression in human NCI-H460 cells at 10 to 20 uM by real-time qPCR analysis; type: functional, cell-based; settings: dose 10-20 µM

Row | SMILES | growth at 10 µM [1] [%] | growth at 10 µM [2] [%] | growth at 10 µM [3] [%] | growth at 10 µM [4] [%] | growth at 10 µM [5] [%] | growth at 10 µM [6] [%] | growth at 10 µM [7] [%] | growth at 10 µM [8] [%] | growth at 10 µM [9] [%] | growth at 10 µM [10] [%] | growth at 10 µM [11] [%] | growth at 10 µM [12] [%] | growth at 10 µM [13] [%] | growth at 10 µM [14] [%] | growth at 10 µM [15] [%] | growth at 10 µM [17] [%] | growth at 10 µM [18] [%] | growth at 10 µM [19] [%] | pIC50 [20] | pIC50 [21] | also measured
1 | COc1cc(CNC(=O)CCCC/C=C/C(C)C)ccc1OCc1nnc(Nc2ccc([N+](=O)[O-])cc2)o1 | 78.8 | 52.3 | 49 | 74.7 | 0 | 62.1 | 33.5 | 73 | 81.2 | 55.2 | 69.6 | 53.5 | 77.3 | 11.2 | 22.2 | 54.1 | 67.1 | 63.2 | 5.27 | 5.19 | growth at 10 µM [16]: 33.6%; Activity [22]: Non-Toxic; Activity [23]: Dose-dependent effect; Activity [24]: Active; Activity [25]: 10.03%; Activity [26]: 29.05%; Activity [27]: 8.706%; Activity [28]: 5.45%; Activity [29]: 8.07%; Activity [30]: 9.27%; Activity [31]: 17.44%; Activity [32]: Active; Activity [33]: inactive; inhibition [34]: Active; Activity [35]: inactive; inhibition [36]: Dose-dependent effect; inhibition [37]: Active
2 | COc1cc(CNC(=O)CCCC/C=C/C(C)C)ccc1OCc1nnc(SCCc2c[nH]c3ccccc23)o1 | 34.7 |  | 79.4 | 57.4 | 92.8 | 66.6 | 89.8 | 59.4 | 68.6 | 55.2 |  | 73.7 | 88.3 | 71.7 | 89.3 | 54 | 70.6 | 81 | 5.00 | 4.50 | 
3 | COc1cc(CNC(=O)CCCC/C=C/C(C)C)ccc1OCc1nnc(Nc2cccc(Br)c2)o1 | 81.8 | 70.3 | 95.4 | 78.1 | 75.6 | 66 | 97.5 | 68.6 | 90.2 | 88.9 | 93.3 | 92.9 | 88 | 85.1 | 95.6 | 70.6 | 78.3 | 93.7 |  |  | 
4 | COc1cc(CNC(=O)CCCC/C=C/C(C)C)ccc1OCc1nnc(Nc2ccccc2F)o1 | 83 | 64.9 | 105 | 77.1 | 56.4 | 63.8 | 80.3 | 60.3 | 90.1 | 83.4 | 99.7 | 58.4 | 68.3 | 0.69 | 12 | 68.8 | 63.9 | 83.7 | 4.84 | 4.90 | 
